Results: patent US20240109865A1, “INDAZOLE COMPOUNDS AS KINASE INHIBITORS” (TYRA BIOSCIENCES, INC., priority 2020, published 2024)

Assays:
[1] = molecular target: FGFR3-BAIAP2L1 Ba/F3 cells (Homo sapiens, UniProt P22607); experiment: Ba/F3 cell viability assay (CellTiter-Glo 2.0), FGFR3-BAIAP2L1 Ba/F3; assay type: cell-based; settings: for Ba/F3 FGFR1/FGFR3 Selectivity: FGFR3 > FGFR1 selectivity ratio in Ba/F3 FGFR fusion cell based assays; for IC50: read-out: Ba/F3 Cells FGFR3 (IC50 nM), FGFR3-BAIAP2L1 Ba/F3 cells, 48 hours, Cell Titer Glo 2.0
How it was run: (§1)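 Viability read as ATP luminescence (CellTiter-Glo 2.0) after 48 h compound exposure, normalized to DMSO-treated cells and fitted with a 4-parameter curve for IC50. Cells: Ba/F3 dependent on FGFR1-BCR or FGFR3-BAIAP2L1 fusion kinase; top dose 30 μM, 10-fold steps, 9 doses in triplicate.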

[2] = tested on: RT112/84 cells (FGFR3-fusion); experiment: RT112/84 cancer cell line cell viability assay (CellTiter-Glo 2.0); assay type: cell-based; settings: Homo sapiens, 72 hours, Cell Titer Glo 2.0
How it was run: (§2)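 Viability was measured as cellular ATP by CellTiter-Glo 2.0 luminescence after 72 h compound exposure, using nine 10-fold doses from 30 μM, in triplicate. Cells were plated at 10,000/well in RPMI1640 with 10% FBS the day before dosing. Signal was expressed as % of DMSO-treated control, and IC50 came from a 4-parameter fit.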

[3] = molecular target: FGFR2 (Homo sapiens (Human), UniProt P21802); experiment: Kinase assay, binding constants (Kd), kinase-tagged T7 phage, qPCR
How it was run: (§3)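 Using T7 phage lysates from BL21-derived E. coli, compounds at 0.9% final DMSO competed for kinase binding to ligand-bearing magnetic beads. After elution, qPCR measured remaining kinase, and Kds were fitted by non-linear least squares with the Hill slope fixed at −1.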

[4] = molecular target: FGFR1 (Homo sapiens (Human), UniProt P11362); experiment: as above
How it was run: as §3

[5] = molecular target: FGFR3 (Homo sapiens (Human), UniProt P22607); experiment: as above
How it was run: as §3

[6] = molecular target: FGFR3 (V555M) (Homo sapiens (Human), UniProt P22607, V555M); experiment: as above; settings: V555M mutant
How it was run: as §3

[7] = molecular target: FGFR4 (Homo sapiens (Human), UniProt P22455); experiment: as above
How it was run: as §3

[8] = tested on: UM-UC-14 cells (FGFR3(S249C)); experiment: UM-UC-14 cancer cell line cell viability assay (CellTiter-Glo 2.0); assay type: cell-based; settings: UMUC14, 72 hours, Cell Titer Glo 2.0
Text: Experimental Purpose: To detect the change of intracellular ATP by Cell Titer-Glo® and to evaluate the inhibitory effect of the compounds on cancer cell lines by determining the in vitro IC50 value of the compounds.
Cell Titer-Glo® 2.0 Luminescent cell viability assay reagent was purchased from Promega (Madison, WI). RT112/84 and KG-1 cell lines were purchased from American Type Culture Collection (Manassas, VA). UM-UC-14 cell line was purchased from Sigma (St. Louis, MO). RT112/84, UM-UC-14, and KG-1 cells were cultured in RPMI1640 media supplemented with 10% fetal bovine serum. Cultures were maintained at 37° C. in a humidified atmosphere of 5% C02 and 95% air.
Cell Viability Assay Procedure: Cells were plated in 96-well clear bottom/white plates (Corning #3903) at 10,000 cells/well in 100 μl of media, incubated overnight. The next day, test compound DMSO stock solutions were made at 10 mM and 2 μM final concentration. Compounds were then added to cells in a 9-dose, 10-fold dilution series starting at 30 μM with an HP 300e Digital Dispenser (each dose was applied in triplicate). DMSO was backfilled to each well up to 301 nL total volume of test compound+DMSO, and a total of 301 nL DMSO was added to a control/no test compound well in triplicate. The cells in cell culture plates were incubated with the compounds at 37° C. and 5% C02 for 72 hours. Then 50 μl of Cell Titer Glo 2.0 reagent was added to each well of the cell culture plates. The contents were covered from light and mixed on an orbital shaker at room temperature for 10 min. Luminescence was recorded by a Synergy H1 Microplate Reader (Biotek, Winooski, VT). Cells were assessed as a percentage of DMSO only treated control cells. Curves were plotted and IC50 values were calculated using the GraphPad Prism 8 program based on a sigmoidal dose-response equation (4 parameter).

[9] = molecular target: FGFR1-BCR Ba/F3 cells (Homo sapiens, UniProt P11362); experiment: Ba/F3 cell viability assay (CellTiter-Glo 2.0), FGFR1-BCR Ba/F3; assay type: cell-based; settings: read-out: Ba/F3 Cells FGFR1 (IC50 nM), 48 hours, Cell Titer Glo 2.0
How it was run: as §1

[10] = tested on: KG-1 cells (FGFR1-fusion); experiment: KG-1 cancer cell line cell viability assay (CellTiter-Glo 2.0); assay type: cell-based; settings: Homo sapiens, 72 hours, Cell Titer Glo 2.0
How it was run: as §2

FGFR2, sequence (P21802 22-821): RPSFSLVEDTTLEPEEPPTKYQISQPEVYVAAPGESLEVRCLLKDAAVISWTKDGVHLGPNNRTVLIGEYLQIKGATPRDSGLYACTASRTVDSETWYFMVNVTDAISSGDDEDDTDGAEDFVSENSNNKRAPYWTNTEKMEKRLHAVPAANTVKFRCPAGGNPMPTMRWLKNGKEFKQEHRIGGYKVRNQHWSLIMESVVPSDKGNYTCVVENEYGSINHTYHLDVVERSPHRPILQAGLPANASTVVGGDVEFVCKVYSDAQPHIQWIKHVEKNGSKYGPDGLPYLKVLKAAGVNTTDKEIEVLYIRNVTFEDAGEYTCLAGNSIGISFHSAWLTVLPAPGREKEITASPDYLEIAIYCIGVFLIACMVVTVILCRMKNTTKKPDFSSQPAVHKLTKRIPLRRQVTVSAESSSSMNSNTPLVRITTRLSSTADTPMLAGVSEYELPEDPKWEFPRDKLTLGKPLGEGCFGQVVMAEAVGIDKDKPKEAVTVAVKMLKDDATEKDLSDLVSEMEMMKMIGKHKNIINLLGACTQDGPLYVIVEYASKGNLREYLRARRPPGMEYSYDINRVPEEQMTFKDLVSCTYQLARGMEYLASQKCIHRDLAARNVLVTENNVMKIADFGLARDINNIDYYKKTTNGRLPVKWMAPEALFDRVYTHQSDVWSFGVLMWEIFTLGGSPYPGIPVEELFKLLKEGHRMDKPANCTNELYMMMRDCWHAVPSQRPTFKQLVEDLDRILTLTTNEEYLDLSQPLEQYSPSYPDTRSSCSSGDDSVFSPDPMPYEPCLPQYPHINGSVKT
FGFR3 (V555M), sequence (P22607 23-806 V555M): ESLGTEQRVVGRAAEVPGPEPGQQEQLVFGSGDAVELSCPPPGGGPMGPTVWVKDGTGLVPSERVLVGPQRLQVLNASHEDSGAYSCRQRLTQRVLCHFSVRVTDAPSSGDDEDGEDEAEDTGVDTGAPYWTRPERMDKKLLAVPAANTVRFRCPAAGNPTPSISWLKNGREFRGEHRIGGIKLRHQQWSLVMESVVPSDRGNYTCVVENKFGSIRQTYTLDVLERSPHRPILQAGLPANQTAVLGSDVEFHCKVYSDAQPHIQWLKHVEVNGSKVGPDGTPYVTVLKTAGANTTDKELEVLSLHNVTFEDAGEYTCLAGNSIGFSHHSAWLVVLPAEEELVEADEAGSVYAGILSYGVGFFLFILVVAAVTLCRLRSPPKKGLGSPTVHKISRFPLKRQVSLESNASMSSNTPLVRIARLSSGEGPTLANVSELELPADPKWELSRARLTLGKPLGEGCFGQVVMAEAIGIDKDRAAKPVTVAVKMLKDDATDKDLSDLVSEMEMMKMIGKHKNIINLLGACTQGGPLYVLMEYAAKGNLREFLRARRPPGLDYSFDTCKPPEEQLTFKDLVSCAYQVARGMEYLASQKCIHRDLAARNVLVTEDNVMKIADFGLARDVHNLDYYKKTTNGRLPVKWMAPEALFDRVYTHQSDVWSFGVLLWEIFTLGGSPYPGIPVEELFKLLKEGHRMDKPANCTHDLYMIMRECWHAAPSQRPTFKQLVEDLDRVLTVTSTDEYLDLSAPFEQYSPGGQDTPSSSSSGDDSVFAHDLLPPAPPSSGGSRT
FGFR1, sequence (P11362 22-822): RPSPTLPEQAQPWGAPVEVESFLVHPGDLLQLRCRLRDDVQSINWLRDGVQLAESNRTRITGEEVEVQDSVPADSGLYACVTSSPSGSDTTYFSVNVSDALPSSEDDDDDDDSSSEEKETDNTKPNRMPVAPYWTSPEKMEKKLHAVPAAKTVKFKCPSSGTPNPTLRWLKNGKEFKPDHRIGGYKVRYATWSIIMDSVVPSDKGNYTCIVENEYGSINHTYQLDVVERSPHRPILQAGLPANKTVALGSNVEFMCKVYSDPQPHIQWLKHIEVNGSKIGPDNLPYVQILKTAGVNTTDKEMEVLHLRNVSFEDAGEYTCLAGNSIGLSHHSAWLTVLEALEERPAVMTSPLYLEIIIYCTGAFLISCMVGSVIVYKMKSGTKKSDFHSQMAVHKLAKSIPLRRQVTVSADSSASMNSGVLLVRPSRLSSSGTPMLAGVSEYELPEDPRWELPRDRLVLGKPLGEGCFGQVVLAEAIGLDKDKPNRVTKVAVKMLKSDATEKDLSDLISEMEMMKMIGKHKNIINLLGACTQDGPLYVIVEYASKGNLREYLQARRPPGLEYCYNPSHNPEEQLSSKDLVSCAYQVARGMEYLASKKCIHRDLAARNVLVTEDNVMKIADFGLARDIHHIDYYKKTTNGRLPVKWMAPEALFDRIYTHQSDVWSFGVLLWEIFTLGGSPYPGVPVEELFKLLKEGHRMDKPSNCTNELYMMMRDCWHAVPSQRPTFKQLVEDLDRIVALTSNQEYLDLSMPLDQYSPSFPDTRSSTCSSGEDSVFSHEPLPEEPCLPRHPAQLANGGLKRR
FGFR1-BCR Ba/F3 cells, sequence (P11362 22-822 limits assumed, change not shown): as the sequence (P11362 22-822) above
FGFR3-BAIAP2L1 Ba/F3 cells, sequence (P22607 23-806 limits assumed, change not shown): as the sequence (P22607 23-806 V555M) above, with M533V counted along it
FGFR3, sequence (P22607 23-806): as the sequence (P22607 23-806 V555M) above, with M533V counted along it
FGFR4, sequence (P22455 22-802): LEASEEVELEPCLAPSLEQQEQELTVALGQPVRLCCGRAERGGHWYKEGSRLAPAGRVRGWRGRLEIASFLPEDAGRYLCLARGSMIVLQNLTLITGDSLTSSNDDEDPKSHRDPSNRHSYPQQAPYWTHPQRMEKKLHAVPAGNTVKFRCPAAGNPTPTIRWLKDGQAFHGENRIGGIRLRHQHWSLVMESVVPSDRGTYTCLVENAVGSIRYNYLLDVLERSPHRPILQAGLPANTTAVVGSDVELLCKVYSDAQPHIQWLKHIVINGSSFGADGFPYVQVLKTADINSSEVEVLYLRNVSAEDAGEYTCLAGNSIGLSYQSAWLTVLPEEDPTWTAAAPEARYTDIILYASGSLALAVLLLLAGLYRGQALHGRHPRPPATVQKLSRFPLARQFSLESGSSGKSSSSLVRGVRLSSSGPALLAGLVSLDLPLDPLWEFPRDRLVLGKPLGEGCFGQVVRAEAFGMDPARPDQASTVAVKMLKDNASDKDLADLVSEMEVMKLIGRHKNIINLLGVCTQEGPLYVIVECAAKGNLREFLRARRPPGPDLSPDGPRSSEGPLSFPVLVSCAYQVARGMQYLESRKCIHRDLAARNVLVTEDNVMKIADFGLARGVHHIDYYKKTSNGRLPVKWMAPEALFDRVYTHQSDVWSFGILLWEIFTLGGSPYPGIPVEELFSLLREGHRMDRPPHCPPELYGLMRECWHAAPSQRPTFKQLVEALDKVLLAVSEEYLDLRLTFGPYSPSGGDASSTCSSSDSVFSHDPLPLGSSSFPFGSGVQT

Row | SMILES | Ba/F3 FGFR1/FGFR3 Selectivity [1] | IC50 [1] | IC50 [2] | Kd [3] | Kd [4] | Kd [5] | Kd [6] | Kd [7] | IC50 [8] | IC50 [9] | IC50 [10]
1 | C[C@@H](Oc1ccc2[nH]nc(-c3ccc(N4CCS(=O)(=O)CC4)nc3)c2c1)c1c(Cl)cncc1Cl [Example 1, 4-[5-[5-[(1R)-1-(3,5-dichloro-4-pyridyl)ethoxy]-1H-indazol-3-yl]-2-pyridyl]-1,4-thiazinane 1,1-dioxide] | 33 | 1 to 20 nM | 1 to 20 nM | 1 to 20 nM | 1 to 20 nM | 1 to 20 nM | 1 to 20 nM | 1 to 20 nM | 1 to 20 nM | 100 to 300 nM | 100 to 300 nM
2 | C[C@@H](Oc1ccc2[nH]nc(-c3ccc(N4CCN(C(=O)N5CCOCC5)CC4)nc3)c2c1)c1c(Cl)cncc1Cl [Example 3, [4-[5-[5-[(1R)-1-(3,5-dichloro-4-pyridyl)ethoxy]-1H-indazol-3-yl]-2-pyridyl]piperazin-1-yl]-morpholino-methanone] | 18 | 1 to 20 nM | 1 to 20 nM | 1 to 20 nM | 1 to 20 nM | 1 to 20 nM | 1 to 20 nM | 1 to 20 nM | 1 to 20 nM | 20 to 100 nM | 20 to 100 nM
3 | C[C@@H](Oc1ccc2[nH]nc(-c3ccc(N4CCN(C(=O)N5CCN(C)CC5)CC4)nc3)c2c1)c1c(Cl)cncc1Cl [Example 4, [4-[5-[5-[(1R)-1-(3,5-dichloro-4-pyridyl)ethoxy]-1H-indazol-3-yl]-2-pyridyl]piperazin-1-yl]-(4-methylpiperazin-1-yl)methanone] | 29 | 1 to 20 nM | 1 to 20 nM | 1 to 20 nM | 1 to 20 nM | 1 to 20 nM | 1 to 20 nM | 1 to 20 nM | 1 to 20 nM | 100 to 300 nM | 20 to 100 nM
4 | C[C@@H](Oc1ccc2[nH]nc(-c3ccc(N4CCN(C(=O)N(C)C)CC4)nc3)c2c1)c1c(Cl)cncc1Cl [Example 5, 4-[5-[5-[(1R)-1-(3,5-dichloro-4-pyridyl)ethoxy]-1H-indazol-3-yl]-2-pyridyl]-N,N-dimethyl-piperazine-1-carboxamide] | 22 | 1 to 20 nM | 1 to 20 nM | 1 to 20 nM | 1 to 20 nM | 1 to 20 nM | 1 to 20 nM | 1 to 20 nM | 1 to 20 nM | 100 to 300 nM | 20 to 100 nM
5 | C[C@@H](Oc1ccc2[nH]nc(-c3ccc(N4CCN(S(C)(=O)=O)CC4)nc3)c2c1)c1c(Cl)cncc1Cl [Example 6, 5-[(1R)-1-(3,5-dichloro-4-pyridyl)ethoxy]-3-[6-(4-methylsulfonyl-piperazin-1-yl)-3-pyridyl]-1H-indazole] | 13 | 1 to 20 nM | 1 to 20 nM | 20 to 100 nM | 1 to 20 nM | 1 to 20 nM | 1 to 20 nM | 1 to 20 nM | 1 to 20 nM | 20 to 100 nM | 20 to 100 nM
6 | C[C@@H](Oc1ccc2[nH]nc(-c3ccc(N4CCN(S(=O)(=O)N5CCN(C)CC5)CC4)nc3)c2c1)c1c(Cl)cncc1Cl [Example 8, 5-[(1R)-1-(3,5-dichloro-4-pyridyl)ethoxy]-3-[6-[4-(4-methylpiperazin-1-yl)sulfonylpiperazin-1-yl]-3-pyridyl]-1H-indazole] | 16 | 1 to 20 nM | 1 to 20 nM | 20 to 100 nM | 20 to 100 nM | 1 to 20 nM | 1 to 20 nM | 1 to 20 nM | 1 to 20 nM | 100 to 300 nM | 100 to 300 nM
7 | CCC(=O)N1CCN(c2ccc(-c3n[nH]c4ccc(O[C@H](C)c5c(Cl)cncc5Cl)cc34)cn2)CC1 [Example 9, 1-[4-[5-[5-[(1R)-1-(3,5-dichloro-4-pyridyl)ethoxy]-1H-indazol-3-yl]-2-pyridyl]piperazin-1-yl]propan-1-one] | 19 | 1 to 20 nM | 1 to 20 nM | 1 to 20 nM | 1 to 20 nM | 1 to 20 nM | 1 to 20 nM | 1 to 20 nM | 1 to 20 nM | 100 to 300 nM | 20 to 100 nM
8 | C[C@@H](Oc1ccc2[nH]nc(-c3cnc(N4CCNCC4)c(F)c3)c2c1)c1c(Cl)cncc1Cl [Example 10, 5-[(1R)-1-(3,5-Dichloro-4-pyridyl)ethoxy]-3-(5-fluoro-6-piperazin-1-yl-3-pyridyl)-1H-indazole] | 9 | 1 to 20 nM | 1 to 20 nM | 1 to 20 nM | 1 to 20 nM | 1 to 20 nM | 1 to 20 nM | 1 to 20 nM | 1 to 20 nM | 20 to 100 nM | 20 to 100 nM
9 | C[C@@H](Oc1ccc2[nH]nc(-c3cnc(N4CCNCC4)nc3)c2c1)c1c(Cl)cncc1Cl [Example 11, 5-[(1R)-1-(3,5-dichloro-4-pyridyl)ethoxy]-3-(2-piperazin-1-ylpyrimidin-5-yl)-1H-indazole] | 9 | 1 to 20 nM | 1 to 20 nM | 1 to 20 nM | 1 to 20 nM | 1 to 20 nM | 1 to 20 nM | 1 to 20 nM | 20 to 100 nM | 100 to 300 nM | 20 to 100 nM
10 | C[C@@H](Oc1ccc2[nH]nc(-c3ccc(N4CCN(C(N)=O)CC4)nc3)c2c1)c1c(Cl)cncc1Cl [Example 12, 4-[5-[5-[(1R)-1-(3,5-dichloro-4-pyridyl)ethoxy]-1H-indazol-3-yl]-2-pyridyl]piperazine-1-carboxamide] | 19 | 1 to 20 nM | 1 to 20 nM | 1 to 20 nM | 1 to 20 nM | 1 to 20 nM | 1 to 20 nM | 1 to 20 nM | 1 to 20 nM | 100 to 300 nM | 20 to 100 nM
11 | C[C@@H](Oc1ccc2[nH]nc(-c3cnc(N4CCN(C(=O)N5CCN(C)CC5)CC4)c(F)c3)c2c1)c1c(Cl)cncc1Cl [Example 13, [4-[5-[5-[(1R)-1-(3,5-Dichloro-4-pyridyl)ethoxy]-1H-indazol-3-yl]-3-fluoro-2-pyridyl]piperazin-1-yl]-(4-methylpiperazin-1-yl)methanone] | 11 | 20 to 100 nM | 1 to 20 nM | 1 to 20 nM | 1 to 20 nM | 1 to 20 nM | 1 to 20 nM | 1 to 20 nM | 20 to 100 nM | 100 to 300 nM | 20 to 100 nM
12 | C[C@@H](Oc1ccc2[nH]nc(-c3cnc(N4CCN(S(C)(=O)=O)CC4)nc3)c2c1)c1c(Cl)cncc1Cl [Example 14, 5-[(1R)-1-(3,5-Dichloro-4-pyridyl)ethoxy]-3-[2-(4-methylsulfonylpiperazin-1-yl)pyrimidin-5-yl]-1H-indazole] | 18 | 1 to 20 nM | 1 to 20 nM | 20 to 100 nM | 1 to 20 nM | 1 to 20 nM | 1 to 20 nM | 1 to 20 nM | 20 to 100 nM | > 300 nM | 100 to 300 nM
